What was measured:
MOLM14 AML cells = assay: Luc-labelled MOLM14 AML xenograft pilot experiment in NRG mice; settings: two 5d PO treatment cycles (d1-5, d21-25), imaging d7, d14, d21, 5 mice/group
Description: Statistical analyses are conducted using GraphPad software. AML burden is quantified using log transformed ratio of luminescence at d7/14/21 vs do for each mouse (fold-change); groups are compared using the appropriate parametric (ANOVA; t-test, etc) or non-parametric alternative as necessary (Wilcoxon rank sum, Kruskal-Wallis). For time-to-event endpoints, Kaplan-Meier survival of groups are compared using the log-rank test. p<0.05 is considered statistically different.
On d0, after Xenogen quantification of baseline total body luminescence (AML burden), groups of 5 AML-bearing mice were treated on days 1-5, per previously established MTD PO×5d schedule, with VEN (150 mg/kg/d PO×5), as monotherapy or co-administered with SOR (30 mg/kg/d PO×5), ART (50 mg/kg/d PO×5), and/or ASP (200 IU/kg IP single dose). A second identical drug cycle was administered on d21-25. On d7, d14 and d21, each mouse was Xenogen imaged for total body luminescence, fold-change AML burden from do was calculated for each mouse, and mean (+/−SD) fold-change for each experimental group plotted.

BCL-2^1-211 = BCL-2^1-211 (Homo sapiens, UniProt P10415); assay: Fluorescence polarization competition assay (FPCA), FITC-Bak competed off BCL-2; format: binding
Description: Fluorescence polarization assays were performed in 96 well polypropylene F-bottom black microplates (Greiner Bio-One) with a final volume of 100 μL. […] The changes in the fluorescence polarization were then measured using a BMG PHERAstar FS multimode microplate reader equipped with two PMTs for simultaneous measurements of both the perpendicular and parallel fluorescence emission at a 485 nm excitation and 520 nm emission filter.
The fluorescence polarization competition assays were setup using a Biomek FXP Automated Liquid Handling System. […] The IC50 values were then converted to Ki values using an equation derived by Nikolovska-Coleska et al. All inhibitors were tested in triplicate.

Sequence of BCL-2^1-211 (P10415 1-211): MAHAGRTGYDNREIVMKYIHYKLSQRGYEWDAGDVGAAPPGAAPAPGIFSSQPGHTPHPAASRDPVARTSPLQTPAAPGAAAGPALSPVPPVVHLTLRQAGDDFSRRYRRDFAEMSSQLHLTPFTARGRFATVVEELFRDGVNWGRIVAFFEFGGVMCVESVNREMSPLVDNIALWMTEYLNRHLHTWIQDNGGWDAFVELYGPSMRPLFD

Row | Compound | IC50 (BCL-2^1-211) [nM] | AML burden over time (fold-change total body luminescence) vs vehicle (MOLM14 AML cells) | AML burden over time (fold-change total body luminescence) vs vehicle (MOLM14 AML cells; listed as SOR)
1 | CNC(=O)c1cc(Oc2ccc(NC(=O)Nc3ccc(Cl)c(C(F)(F)F)c3)cc2)ccn1 [Sorafenib] |  | reduced AML burden only moderately | significant difference in AML burden only at d7 and d14
2 | PEGylated L-asparaginase |  | minimal activity | 
3 | CC1(C)CCC(CN2CCN(c3ccc(C(=O)NS(=O)(=O)c4ccc(NCCOCCOCCNC(=O)C(c5ccccc5)c5ccccc5)c([N+](=O)[O-])c4)c(Oc4cnc5[nH]ccc5c4)c3)CC2)=C(c2ccc(Cl)cc2)C1 [CG-2-132] | < 20 |  | 

More lines, main results first:

Row | IC50 (BCL-2^1-211) [nM] | Compound | AML burden over time (fold-change total body luminescence) vs vehicle (MOLM14 AML cells) | AML burden over time (fold-change total body luminescence) vs vehicle (MOLM14 AML cells; listed as SOR)
4 | < 20 | CC1(C)CCC(CN2CCN(c3ccc(C(=O)NS(=O)(=O)c4ccc(NCCNC(=O)CC56CC7CC(CC(C7)C5)C6)c([N+](=O)[O-])c4)c(Oc4cnc5[nH]ccc5c4)c3)CC2)=C(c2ccc(Cl)cc2)C1 [SF-7-330] |  | 
5 | < 20 | CC(C)Cc1ccc([C@@H](C)C(=O)NCCOCCOCCNc2ccc(S(=O)(=O)NC(=O)c3ccc(N4CCN(CC5=C(c6ccc(Cl)cc6)CC(C)(C)CC5)CC4)cc3Oc3cnc4[nH]ccc4c3)cc2[N+](=O)[O-])cc1 [CG-3-005] |  | 

Reference: patent US20240299558A1, “PROTEOLYSIS TARGETING CHIMERAS AND POLYPHARMACOLOGICAL AGENTS TARGETING BCL-2, AND METHODS OF USE THEREOF” (University of Maryland, Baltimore, priority 2021, published 2024)
